For eight compounds, EC50 and CC50 results are on record in patent US12594276B2, “Inhibitors of human immunodeficiency virus replication” (ViiV Healthcare UK (No.5) Limited, priority 2024, dated 2026).

Read-outs that look alike come from different tables or passages of the source.

For series [1], the system named is recombinant NL4-3 virus (nef section replaced with Renilla luciferase gene) in MT-2 cells. Description: HIV cell culture assay (antiviral activity, luciferase readout). In kind it is cell-based. As to conditions: Renilla, NL43, MT-2 cells infected for 4-5 days with recombinant NL4-3 Renilla luciferase virus. In short, it runs like this: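 Reporter virus is produced in 293T cells and its titer set in MT-2 cells by luciferase activity. MT-2 cells are then infected in the presence of serially diluted compound for 4-5 days. Luciferase is quantified and EC50 fitted to the median effect equation.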

The nature of series [2]: Compound cytotoxicity, XTT-based colorimetric assay. In kind it is cell-based. As to conditions: human. The method in brief:
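Uninfected MT2 cells were treated with compound under the same protocol as the antiviral assay. Viability was read on day 4 with an XTT colorimetric assay, from which CC50 values were derived.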
On the technique in general: Tetrazolium dyes change colour on reduction, which living cells bring about.

Setting [3] is: uninfected MT2 cells, day 4, XTT, read-out: CC50.

Turning to `COCCNc1cc(C2CCC(F)(F)CC2)nc2nc([C@H](Cc3cc(F)cc(F)c3)NC(=O)Cn3nc(C(F)F)c4c3C(F)(F)[C@@H]3C[C@H]43)n(-c3ccc(Cl)c4c(NS(C)(=O)=O)nn(CCN5C[C@@H](F)[C@@H](F)C5)c34)c(=O)c12` (atropisomer, axis not shown; (P)) [Example 417, N-[(1S)-1-[(3P)-3-(4-chloro-1-{2-[(3R,4S)-3,4-difluoropyrrolidin-1-yl]ethyl}-3-methanesulfonamido-1H-indazol-7-yl)-7-(4,4-difluorocyclohexyl)-5-[(2-methoxyethyl)amino]-4-oxo-3H,4H-pyrido[2,3-d]pyrimidin-2-yl]-2-(3,5-difluorophenyl)ethyl]-2-[(2S,4R)-9-(difluoromethyl)-5,5-difluoro-7,8-diazatricyclo[4.3.0.0^2,^4]nona-1(6),8-dien-7-yl]acetamide], in series [1], the EC50 is 0.007 nM. For the same compound, the CC50 at 4 days in series [2] (setting [3]) is more than 20 nM.
Turning to `COCCNc1cc(C2CCC(F)(F)CC2)nc2nc([C@H](Cc3cc(F)cc(F)c3)NC(=O)Cn3nc(C(F)F)c4c3C(F)(F)[C@@H]3C[C@H]43)n(-c3ccc(Cl)c4c(NS(C)(=O)=O)nn(CCN5C[C@@H](C)O[C@@H](C)C5)c34)c(=O)c12` (atropisomer, axis not shown; (P)) [Example 418, N-[(1S)-1-[(3P)-3-(4-chloro-1-{2-[(2R,6S)-2,6-dimethylmorpholin-4-yl]ethyl}-3-methanesulfonamido-1H-indazol-7-yl)-7-(4,4-difluorocyclohexyl)-5-[(2-methoxyethyl)amino]-4-oxo-3H,4H-pyrido[2,3-d]pyrimidin-2-yl]-2-(3,5-difluorophenyl)ethyl]-2-[(2S,4R)-9-(difluoromethyl)-5,5-difluoro-7,8-diazatricyclo[4.3.0.0^2,^4]nona-1(6),8-dien-7-yl]acetamide], in series [1], the EC50 worked out at 0.019 nM. In series [2] (setting [3]), the CC50 at 4 days was more than 20 nM.
As for `COCCNc1cc(C2CCC(F)(F)CC2)nc2nc([C@H](Cc3cc(F)cc(F)c3)NC(=O)Cn3nc(C(F)F)c4c3C(F)(F)[C@@H]3C[C@H]43)n(-c3ccc(Cl)c4c(NS(C)(=O)=O)nn(CCN5C[C@H]6C[C@@H](C5)O6)c34)c(=O)c12` (atropisomer, axis not shown; (P)) [Example 419, N-[(1S)-1-[(3P)-3-(4-chloro-3-methanesulfonamido-1-{2-[(1R,5S)-6-oxa-3-azabicyclo[3.1.1]heptan-3-yl]ethyl}-1H-indazol-7-yl)-7-(4,4-difluorocyclohexyl)-5-[(2-methoxyethyl)amino]-4-oxo-3H,4H-pyrido[2,3-d]pyrimidin-2-yl]-2-(3,5-difluorophenyl)ethyl]-2-[(2S,4R)-9-(difluoromethyl)-5,5-difluoro-7,8-diazatricyclo[4.3.0.0^2,^4]nona-1(6),8-dien-7-yl]acetamide], in series [1], the EC50 was found to be 0.011 nM. The CC50 at 4 days in series [2] is more than 20 nM.
Take `COCCNc1cc(C2CCC(F)(F)CC2)nc2nc([C@H](Cc3cc(F)cc(F)c3)NC(=O)Cn3nc(C(F)F)c4c3C(F)(F)[C@@H]3C[C@H]43)n(-c3ccc(Cl)c4c(NS(C)(=O)=O)nn(CCN5C[C@H]6CC[C@@H](C5)O6)c34)c(=O)c12` (atropisomer, axis not shown; (P)) [Example 420, N-[(1S)-1-[(3P)-3-(4-chloro-3-methanesulfonamido-1-{2-[(1R,5S)-8-oxa-3-azabicyclo[3.2.1]octan-3-yl]ethyl}-1H-indazol-7-yl)-7-(4,4-difluorocyclohexyl)-5-[(2-methoxyethyl)amino]-4-oxo-3H,4H-pyrido[2,3-d]pyrimidin-2-yl]-2-(3,5-difluorophenyl)ethyl]-2-[(2S,4R)-9-(difluoromethyl)-5,5-difluoro-7,8-diazatricyclo[4.3.0.0^2,^4]nona-1(6),8-dien-7-yl]acetamide]: the 50% effective concentration (EC50) in series [1] came to 0.011 nM. In addition, in series [2] (setting [3]), the CC50 at 4 days was more than 20 nM.
For `CC1(C)CN(CCn2nc(NS(C)(=O)=O)c3c(Cl)ccc(-n4c([C@H](Cc5cc(F)cc(F)c5)NC(=O)Cn5nc(C6CC6)c6c5C[C@@H]5C[C@H]65)nc5nc(C6CCC(F)(F)CC6)cc(C(F)F)c5c4=O)c32)CC(C)(C)O1` (atropisomer, axis not shown; (P)) [Example 421, N-[(1S)-1-[(3P)-3-{4-chloro-3-methanesulfonamido-1-[2-(2,2,6,6-tetramethylmorpholin-4-yl)ethyl]-1H-indazol-7-yl}-7-(4,4-difluorocyclohexyl)-5-(difluoromethyl)-4-oxo-3H,4H-pyrido[2,3-d]pyrimidin-2-yl]-2-(3,5-difluorophenyl)ethyl]-2-[(2S,4S)-9-cyclopropyl-7,8-diazatricyclo[4.3.0.0^2,^4]nona-1(6),8-dien-7-yl]acetamide] the same measures were 0.012 nM and more than 20 nM.
The matching figures for `CC1(C)CN(CCn2nc(NS(C)(=O)=O)c3c(Cl)ccc(-n4c([C@H](Cc5cc(F)cc(F)c5)NC(=O)Cn5nc(C6CC6)c6c5C[C@@H]5C[C@H]65)nc5nc(C6CCC(F)(F)CC6)ccc5c4=O)c32)CC(C)(C)O1` (atropisomer, axis not shown; (P)) [Example 424, N-[(1S)-1-[(3P)-3-{4-chloro-3-methanesulfonamido-1-[2-(2,2,6,6-tetramethylmorpholin-4-yl)ethyl]-1H-indazol-7-yl}-7-(4,4-difluorocyclohexyl)-4-oxo-3H,4H-pyrido[2,3-d]pyrimidin-2-yl]-2-(3,5-difluorophenyl)ethyl]-2-[(2S,4S)-9-cyclopropyl-7,8-diazatricyclo[4.3.0.0^2,^4]nona-1(6),8-dien-7-yl]acetamide]: 0.012 nM and more than 20 nM.
For `CCNc1cc(C2CCC(F)(F)CC2)nc2nc([C@H](Cc3cc(F)cc(F)c3)NC(=O)Cn3nc(C(F)F)c4c3C(F)(F)[C@@H]3C[C@H]43)n(-c3ccc(Cl)c4c(NS(C)(=O)=O)nn(CCCOC)c34)c(=O)c12` (atropisomer, axis not shown; (P)) [Example 427, N-[(1S)-1-[(3P)-3-[4-chloro-3-methanesulfonamido-1-(3-methoxypropyl)-1H-indazol-7-yl]-7-(4,4-difluorocyclohexyl)-5-(ethylamino)-4-oxo-3H,4H-pyrido[2,3-d]pyrimidin-2-yl]-2-(3,5-difluorophenyl)ethyl]-2-[(2S,4R)-9-(difluoromethyl)-5,5-difluoro-7,8-diazatricyclo[4.3.0.0^2,4]nona-1(6),8-dien-7-yl]acetamide] the same measures were 0.01 nM and more than 20 nM.
Regarding `COCCCn1nc(NS(C)(=O)=O)c2c(Cl)ccc(-n3c([C@H](Cc4cc(F)cc(F)c4)NC(=O)Cn4nc(C(F)F)c5c4C(F)(F)[C@@H]4C[C@H]54)nc4nc(C5CCC(F)(F)CC5)cc(NC[C@@H]5CCCOC5)c4c3=O)c21` (atropisomer, axis not shown; (P)) [Example 428, N-[(1S)-1-[(3P)-3-[4-chloro-3-methanesulfonamido-1-(3-methoxypropyl)-1H-indazol-7-yl]-7-(4,4-difluorocyclohexyl)-5-({[(3S)-oxan-3-yl]methyl}amino)-4-oxo-3H,4H-pyrido[2,3-d]pyrimidin-2-yl]-2-(3,5-difluorophenyl)ethyl]-2-[(2S,4R)-9-(difluoromethyl)-5,5-difluoro-7,8-diazatricyclo[4.3.0.0^2,^4]nona-1(6),8-dien-7-yl]acetamide], the EC50 in series [1] was found to be 0.02 nM. Moreover, the CC50 at 4 days in series [2] (setting [3]) was more than 20 nM.

What is called EC50 is the concentration at which the effect is half-maximal. Broadly, the CC50 is the concentration at which the toxic effect on the cells reaches its halfway point.
